Laboratory results from US20070128217A1 (priority 2003, published 2007).

Experiments:
[1] = test system: antibodies in sera from SARS patients (sera 1a, 1b, 2, 6, 37, 62, London, SARS-yellow, SARS-green); format: binding, human; design: Binding of serum 6 to linear peptides of protein X1 of SARS-CoV Urbani / Binding of serum 37 to linear peptides of protein X1 of SARS-CoV Urbani / Binding of serum 6 to looped/cyclic peptide (PEPSCAN-ELISA) / Binding of serum 37 to looped/cyclic peptide (PEPSCAN-ELISA) / Binding of serum 37 to looped/cyclic peptides of protein X1 of SARS-CoV Urbani / Binding of serum 6 to linear peptides of protein X2 / Binding of serum 37 to linear peptides of protein X2 / Binding of serum 37 to looped/cyclic peptides of protein X2 of SARS-CoV Urbani / Binding of serum 6 to linear peptides of protein M of SARS-CoV Urbani / Binding of serum 37 to linear peptides of protein M of SARS-CoV Urbani / Binding of serum 6 to looped/cyclic peptides of protein M of SARS-CoV Urbani / Binding of serum 37 to looped/cyclic peptides of protein M of SARS-CoV Urbani / Binding of serum 6 to linear peptides of protein X3 of SARS-CoV Urbani / Binding of serum 37 to linear peptides of protein X3 of SARS-CoV Urbani / Binding of serum 37 to looped/cyclic peptides of protein X3 of SARS-CoV Urbani / Binding of serum 6 to linear peptides of protein X4 of SARS-CoV Urbani / Binding of serum 37 to linear peptides of protein X4 of SARS-CoV Urbani / Binding of serum 37 to looped/cyclic peptides of protein X4 of SARS-CoV Urbani / Binding of serum 6 to linear peptides of protein X5 of SARS-CoV Urbani / Binding of serum 37 to linear peptides of protein X5 of SARS-CoV Urbani / Binding of serum 37 to looped/cyclic peptides of protein X5 of SARS-CoV Urbani / Binding of serum 6 to linear peptides of protein N of SARS-CoV Urbani / Binding of serum 37 to linear peptides of protein N of SARS-CoV Urbani / Binding of serum 6 to linear peptide (PEPSCAN-ELISA) / Binding of serum 1a to looped/cyclic peptides of protein N of SARS-CoV Urbani / Binding of serum 1b to looped/cyclic peptides of protein N of SARS-CoV Urbani / Binding of serum 2 to looped/cyclic peptides of protein N of SARS-CoV Urbani / Binding of serum 6 to looped/cyclic peptides of protein N of SARS-CoV Urbani / Binding of serum 37 to looped/cyclic peptides of protein N of SARS-CoV Urbani / Binding of serum 62 to looped/cyclic peptides of protein N of SARS-CoV Urbani / Binding of serum London to looped/cyclic peptides of protein N of SARS-CoV Urbani / Binding of serum SARS-green to looped/cyclic peptides of protein N of SARS-CoV Urbani: unit not given here
[2] = test system: control sera (pooled serum of ten healthy LUMC hospital workers; commercial negative donor pooled serum from the Dutch bloodbank); format: binding, human
[3] = test system: recombinant human anti-SARS-CoV antibody 03-018; format: binding; design: Binding of antibody 03-018 to linear peptides of the N protein of SARS-CoV Urbani / Binding of antibody 03-018 to looped/cyclic peptides of the N protein of SARS-CoV Urbani: unit not given here
[4] = test system: rabbit serum obtained by immunizing a rabbit with the SARS-CoV strain Frankfurt 1; format: binding; design: Binding of a rabbit serum to linear peptides / Binding of a rabbit serum to looped peptides / Rabbit serum linear peptides / Rabbit serum looped peptides / Binding of a rabbit serum to linear peptides of protein N of SARS-CoV Urbani (Rabbit serum linear peptides) / Binding of a rabbit serum to looped/cyclic peptides of protein N of SARS-CoV Urbani (Rabbit serum looped peptides): unit not given here

Sequence | Binding of serum 1a to linear peptides of protein N of SARS-CoV Urbani [1] | Binding of serum 1a to looped/cyclic peptides of protein N of SARS-CoV Urbani [1] | Binding of serum 1b to linear peptides of protein N of SARS-CoV Urbani [1] | Binding of serum 1b to looped/cyclic peptides of protein N of SARS-CoV Urbani [1] | Binding of serum 2 to linear peptides of protein N of SARS-CoV Urbani [1] | Binding of serum 2 to looped/cyclic peptides of protein N of SARS-CoV Urbani [1] | Binding of serum 6 to linear peptides of protein N of SARS-CoV Urbani [1] | Binding of serum 6 to looped/cyclic peptides of protein N of SARS-CoV Urbani [1] | Binding of serum 37 to linear peptides of protein N of SARS-CoV Urbani [1] | Binding of serum 37 to looped/cyclic peptides of protein N of SARS-CoV Urbani [1] | Binding of serum 62 to linear peptides of protein N of SARS-CoV Urbani [1] | Binding of serum 62 to looped/cyclic peptides of protein N of SARS-CoV Urbani [1] | Binding of serum London to linear peptides of protein N of SARS-CoV Urbani [1] | Binding of serum London to looped/cyclic peptides of protein N of SARS-CoV Urbani [1] | Binding of serum SARS-green to linear peptides of protein N of SARS-CoV Urbani [1] | Binding of serum SARS-green to looped/cyclic peptides of protein N of SARS-CoV Urbani [1] | Binding of serum SARS-yellow to linear peptides of protein N of SARS-CoV Urbani [1] | Binding of serum SARS-yellow to looped/cyclic peptides of protein N of SARS-CoV Urbani [1] | Control Serum Blood-Bank Looped peptides [2] | Control serum Blood-bank linear peptides [2] | other results
LLPAADMDDFSRQLQ | 0.3 | 0.3 | 0.2 | 0.1 | 0.3 | 0.4 | 0.3 | 0.1 | 0.8 | 0.5 | 0.6 | 0.2 | 0.6 | 0.3 | 0.4 | 0.2 | 0.6 | 0.3 | 0.4 | 0.7 | Control serum LUMC linear peptides [2]: 0.6; Control serum LUMC looped peptides [2]: 0.4; Binding of antibody 03-018 to linear peptides of the N protein of SARS-CoV Urbani [3]: 0.1; Binding of antibody 03-018 to looped/cyclic peptides of the N protein of SARS-CoV Urbani [3]: 0.2; Binding of a rabbit serum to linear peptides of protein N of SARS-CoV Urbani (Rabbit serum linear peptides) [4]: 0.1; Binding of a rabbit serum to looped/cyclic peptides of protein N of SARS-CoV Urbani (Rabbit serum looped peptides) [4]: 0.2
LNKHIDAYKTFPPTE | 0.2 | 0.2 | 0.1 | 0.1 | 0.1 | 0.2 | 0.1 | 0.1 | 0.7 | 0.4 | 0.5 | 0.3 | 0.4 | 0.3 | 0.4 | 0.2 | 0.5 | 0.1 | 0.4 | 0.5 | Control serum LUMC linear peptides [2]: 0.5; Control serum LUMC looped peptides [2]: 0.4; Binding of antibody 03-018 to linear peptides of the N protein of SARS-CoV Urbani [3]: 0.1; Binding of antibody 03-018 to looped/cyclic peptides of the N protein of SARS-CoV Urbani [3]: 0.2; Binding of a rabbit serum to linear peptides of protein N of SARS-CoV Urbani (Rabbit serum linear peptides) [4]: 0.1; Binding of a rabbit serum to looped/cyclic peptides of protein N of SARS-CoV Urbani (Rabbit serum looped peptides) [4]: 0.4
